The values that follow come from paper PMC3083694, “Effects of Intermediates between Vitamins K2 and K3 on Mammalian DNA Polymerase Inhibition and Anti-Inflammatory Activity” (International Journal of Molecular Sciences, 2011).

For one test, the target named is T1, Human DNA polymerase λ (Homo sapiens, UniProt Q9UGP5).
T1 construct: made in house
T1 sequence (Q9UGP5 1-575): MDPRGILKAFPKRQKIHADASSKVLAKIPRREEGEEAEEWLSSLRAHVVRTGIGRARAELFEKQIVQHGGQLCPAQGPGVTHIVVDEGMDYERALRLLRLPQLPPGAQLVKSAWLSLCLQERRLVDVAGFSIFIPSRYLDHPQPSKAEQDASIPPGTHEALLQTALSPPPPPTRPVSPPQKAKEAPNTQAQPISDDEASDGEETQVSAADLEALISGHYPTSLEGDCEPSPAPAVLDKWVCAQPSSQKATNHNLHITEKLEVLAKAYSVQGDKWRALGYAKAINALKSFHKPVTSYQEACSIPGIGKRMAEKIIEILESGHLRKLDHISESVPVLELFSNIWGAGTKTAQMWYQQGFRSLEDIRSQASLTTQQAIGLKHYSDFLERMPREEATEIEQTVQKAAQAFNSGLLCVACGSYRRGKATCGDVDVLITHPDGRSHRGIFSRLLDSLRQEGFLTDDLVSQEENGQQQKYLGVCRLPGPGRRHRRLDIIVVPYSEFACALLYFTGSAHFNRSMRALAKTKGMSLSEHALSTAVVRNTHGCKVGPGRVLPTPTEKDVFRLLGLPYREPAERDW
The experiment in a line: DNA polymerase activity assay, human pol λ. As to conditions: for Inhibitory effect on human pol λ activity: 50 μM of each compound, Figure 2. In kind it is biochemical. The method, then:
(§1) Pols from mammals, a fish (cherry salmon), an insect (fruit fly) and a plant (cauliflower) were purified, and prokaryotic pols and other DNA metabolic enzymes, such as T7 RNA polymerase, T4 polynucleotide kinase and bovine deoxyribonuclease I, were purchased as described in our previous report. The activities of all pols and other DNA metabolic enzymes were measured as described in previous reports.
(§2) The components of the pol assay were poly(dA)/oligo(dT)18 and dTTP as the DNA template-primer and 2′-deoxyribonucleoside 5′-triphosphate (dNTP) substrate, respectively. VK2, VK3, and their synthesized derivatives (i.e., MK-3, MK-2 and MK-1) were dissolved in dimethyl sulfoxide (DMSO) at various concentrations and sonicated for 30 s. The sonicated samples (4 μL) were mixed with 16 μL of each pol enzyme (final amount, 0.05 units) in 50 mM Tris-HCl (pH 7.5) containing 1 mM dithiothreitol, 50% glycerol and 0.1 mM EDTA, and kept at 0 °C for 10 min. These inhibitor–enzyme mixtures (8 μL) were added to 16 μL of each standard enzyme reaction mixture (50 mM Tris-HCl [pH 7.5], 1 mM dithiothreitol, 1 mM MgCl2, 15% glycerol, 10 μM poly(dA)/oligo(dT)18 and 10 μM [^3H]-dTTP), and incubation was carried out at 37 °C for 60 min, except for Taq pol, which was incubated at 74 °C for 60 min. Activity without the inhibitor was considered to be 100%, and the activity remaining at each concentration of inhibitor was determined relative to this value. One unit of pol activity was defined as the amount of enzyme that catalyzed the incorporation of 1 nmol dNTP (dTTP) into the synthetic DNA template-primer (poly(dA)/oligo(dT)18, A/T = 2/1) in 60 min at 37 °C under normal reaction conditions for each enzyme (scintillation counts: approximately 1 pmol of incorporated radioactive nucleotides = 100 cpm).

In a further test the target is T2, Human DNA polymerase κ (Homo sapiens, UniProt Q9UBT6).
T2 construct: made in house
T2 sequence (Q9UBT6 1-560 limits assumed): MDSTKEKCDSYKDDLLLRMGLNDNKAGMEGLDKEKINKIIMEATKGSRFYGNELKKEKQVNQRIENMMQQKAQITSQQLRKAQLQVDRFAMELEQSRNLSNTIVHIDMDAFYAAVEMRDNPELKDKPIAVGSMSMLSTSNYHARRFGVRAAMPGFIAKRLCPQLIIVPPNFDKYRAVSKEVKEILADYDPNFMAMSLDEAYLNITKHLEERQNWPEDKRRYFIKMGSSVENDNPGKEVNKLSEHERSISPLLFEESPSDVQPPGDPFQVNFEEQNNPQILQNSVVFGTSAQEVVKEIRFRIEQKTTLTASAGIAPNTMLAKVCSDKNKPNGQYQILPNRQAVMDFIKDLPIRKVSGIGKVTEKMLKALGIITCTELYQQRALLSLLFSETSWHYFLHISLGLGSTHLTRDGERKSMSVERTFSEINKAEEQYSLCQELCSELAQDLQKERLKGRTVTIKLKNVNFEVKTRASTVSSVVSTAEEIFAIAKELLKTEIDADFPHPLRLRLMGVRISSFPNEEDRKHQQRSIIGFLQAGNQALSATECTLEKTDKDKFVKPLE
In words: DNA polymerase activity assay, human pol κ. Type of test: biochemical. As to conditions: for Inhibitory effect on human pol κ activity: 50 μM of each compound, Figure 2. The method, then:
as §1, §2

The test system of test [1] is LPS-induced production of TNF-α in RAW264.7 cells. The experiment in a line: LPS-induced TNF-α production in mouse macrophages (ELISA). To be noted: Figure 4; for Suppression of LPS-stimulated production of TNF-α: then 100 ng/mL LPS 24 h; for Inhibitory effect on LPS-stimulated TNF-α production: 10 and 50 μM tested, concentration not specified. In kind it is cell-based. The procedure: A mouse macrophage cell line, RAW264.7, was obtained from American Type Culture Collection (ATCC) (Manassas, VA, U.S.). The cells were cultured in Eagle’s Minimum Essential Medium (MEM) supplemented with 4.5 g of glucose per liter plus 10% fetal calf serum, 5 mM L-glutamine, 50 units/mL penicillin and 50 units/mL streptomycin. The cells were cultured at 37 °C in standard medium in a humidified atmosphere of 5% CO2–95% air.
RAW264.7 cells were placed in a 12-well plate at 5 × 10^4 cells/well and incubated for 24 h. The cells were pretreated with the VK2 and VK3 intermediates (final concentrations of 10 and 50 μM) for 30 min before the addition of 100 ng/mL of LPS. After stimulation with LPS for 24 h, the cell culture medium was collected to measure the amount of TNF-α secreted. The concentration of TNF-α in the culture medium was quantified by using a commercially available enzyme-linked immunosorbent assay (ELISA) development system (Bay Bioscience Co., Ltd., Kobe, Japan) in accordance with the manufacturer’s protocol.

Consider `CC(C)=CCC1=C(C)C(=O)c2ccccc2C1=O` [MK-1], for which, at Human DNA polymerase λ, the “Inhibitory effect on human pol λ activity” value is recorded as “inhibited the activity”. For the same molecule, the “Inhibitory effect on human pol κ activity” value at Human DNA polymerase κ is “inhibited the activity”. In addition, in test [1] (50 μM compound 30 min), the “Suppression of LPS-stimulated production of TNF-α” value was “significantly suppressed”.
The IC50 is the point on the concentration scale where inhibition reaches its midpoint. Take `CC(C)=CCC/C(C)=C/CC1=C(C)C(=O)c2ccccc2C1=O` [MK-2]: at Human DNA polymerase λ, the “Inhibitory effect on human pol λ activity” value is recorded as “inhibited the activity”. Besides, the IC50 on Human DNA polymerase λ (X-family pol, read-out: IC50 Value of MK-2, Human DNA polymerase λ) worked out at 24.6 ± 1.4 µM; on Human DNA polymerase κ (Y-family pol, read-out: IC50 Value of MK-2, Human DNA polymerase κ), 35.3 ± 2.1 µM. Besides, the “Inhibitory effect on human pol κ activity” value at Human DNA polymerase κ is listed as “inhibited the activity”. The “Suppression of LPS-stimulated production of TNF-α” value in test [1] (10 μM compound 30 min) and in test [1] (50 μM compound 30 min) was “significantly suppressed” each time.
On to `CC(C)=CCC/C(C)=C/CC/C(C)=C/CC1=C(C)C(=O)c2ccccc2C1=O` [MK-3], for which the “Inhibitory effect on human pol λ activity” value on Human DNA polymerase λ is listed as “inhibited the activity”. Also, the “Inhibitory effect on human pol κ activity” value on Human DNA polymerase κ is “inhibited the activity”. In test [1], the “Inhibitory effect on LPS-stimulated TNF-α production” value is recorded as “moderate inhibitory effect”.
Consider `CC(C)=CCC/C(C)=C/CC/C(C)=C/CC/C(C)=C/CC1=C(C)C(=O)c2ccccc2C1=O` [MK-4, menaquinone 4, reference compound], for which the “Inhibitory effect on human pol λ activity” value at Human DNA polymerase λ is “had no effect on pol activity”. The “Inhibitory effect on human pol κ activity” value at Human DNA polymerase κ is recorded as “had no effect on pol activity”. In test [1], the “Inhibitory effect on LPS-stimulated TNF-α production” value was “moderate inhibitory effect”.
